According to patent US12410148B2, “Antibody drug conjugates” (Pharma Mar, S.A., priority 2013, dated 2025):
≈ marks a conversion by molar mass, not a printed value. Where “and” joins values, the source holds several entries; their conditions need not be identical. Identical values can stand only once. Like-named read-outs stand apart in the source and are kept apart here.

What was measured:
SK-BR-3 cells = assay: In vitro cytotoxicity, SRB assay, 72 h dose-response; assay type: cell-based; conditions: Homo sapiens, SK-BR-3, 72 h
Excerpt: All tumor cell lines used in this study were obtained from the American Type Culture Collection (ATCC), unless otherwise indicated; BT-474 (ATCC HTB-20, Breast Ductal Carcinoma), SK-BR-3 (ATCC HTB-30, Breast Adenocarcinoma) and HCC-1954 (ATCC CRL-2338, Breast Ductal Carcinoma), all HER2+; MDA-MB-231 (ATCC HTB-26, Breast Adenocarcinoma) and MCF-7 (ATCC HTB-22 Breast Adenocarcinoma, pleural effusion), all HER2-; SK-OV-3 (ATCC HTB-77, Ovary Adenocarcinoma), HER2+; NB-4 (Acute Promyelocytic Leukemia, APL, CD13+, M. Lanotte et al. (1991) NB4, a maturation inducible cell line with t(15;17) marker isolated from a human acute promyelocytic leukemia (M3). […] Cells were maintained at 37° C., 5% CO 2 and 95% humidity in Dulbecco's Modified Eagle's Medium (DMEM) (for MCF and MDA-MB-231 cells), RPMI-1640 (for SK-BR-3, HCC-1954, NB-4, U937, Raji, RPMI-8226, Karpas-299, MOLT-4, Raji-clone #10 and Raji-clone #18 cells), RPMI-1640+1% ITS (for BT-474 cells) or McCOyS (for SK-OV-3 cells), all media supplemented with 10% Fetal Calf Serum (FCS) and 100 units/mL penicillin and streptomycin.
For adherent cells: A colorimetric assay using sulforhodamine B (SRB) was adapted for quantitative measurement of cell growth and cytotoxicity, as described in V. Vichai and K. Kirtikara (2006) Sulforhodamine B colorimetric assay for cytotoxicity screening. […] Briefly, cells were seeded in 96-well microtiter plates and allowed to stand for 24 hours in drug-free medium before treatment with vehicle alone or the indicated compounds for 72 hours. For quantification, cells were washed twice with phosphate buffered saline (PBS), fixed for 15 min in 1% glutaraldehyde solution, rinsed twice with PBS, stained in 0.4% SRB-1% acetic acid solution for 30 min, rinsed several times with 1% acetic acid solution and air-dried. SRB was then extracted in 10 mM trizma base solution and the optical density measured at 490 nm in a microplate spectrophotometer. Cell survival was expressed as percentage of control, untreated cell survival.

[1] = test system: Raji cell clones #10 (high CD5) and #18 (null CD5); assay: In vitro cytotoxicity, the two Raji cell clones; assay type: cell-based, human; conditions: from mean IC50
Procedure: J. Immunol. Meth., 65, 55-63.
[…] dose-response (DR) curves for 72 hours were performed.

NB-4 cells = assay: In vitro cytotoxicity, MTT assay, 72 h dose-response; assay type: cell-based; conditions: Homo sapiens, CD13+
Procedure: (§3) Briefly, MTT solution was added to the cell cultures at a final concentration of 0.5 mg/mL, and incubated for 1 to 4 hours at 37° C. until formazan crystals are formed. Culture medium is carefully removed from the cell cultures and formazan crystals resuspended in 100 μl DMSO. […] Cell survival was expressed as percentage of control, untreated cell survival.

[2] = test system: BT-474, HCC-1954, SK-BR-3, MDA-MB-231, MCF-7 and SK-OV-3 cells; assay: In vitro cytotoxicity, whole cell panel of Bioactivity Example 1; assay type: cell-based; conditions: Homo sapiens
Excerpt: (§1) All tumor cell lines used in this study were obtained from the American Type Culture Collection (ATCC), unless otherwise indicated; BT-474 (ATCC HTB-20, Breast Ductal Carcinoma), SK-BR-3 (ATCC HTB-30, Breast Adenocarcinoma) and HCC-1954 (ATCC CRL-2338, Breast Ductal Carcinoma), all HER2+; MDA-MB-231 (ATCC HTB-26, Breast Adenocarcinoma) and MCF-7 (ATCC HTB-22 Breast Adenocarcinoma, pleural effusion), all HER2-; SK-OV-3 (ATCC HTB-77, Ovary Adenocarcinoma), HER2+; NB-4 (Acute Promyelocytic Leukemia, APL, CD13+, M. Lanotte et al. (1991) NB4, a maturation inducible cell line with t(15;17) marker isolated from a human acute promyelocytic leukemia (M3). Blood 77, 1080-1086), (CD13+) and U937 (ATCC CRL-1 593.2, Histiocytic Lymphoma, CD13+ and CD4+); Raji (ATCC CCL-86, Burkitt's Lymphoma) (CD13−, CD20+, CD5−, and CD4−); RPMI-8226 (ATCC CRM-CCL-155, Multiple Myeloma) (CD13−, CD20−, CD5− and CD4−); Karpas-299 (DSMZ ACC-31, Non-Hodgkin's Lymphoma) (CD20−, CD5+, and CD4+); MOLT-4 (ATCC CRL-1 582, Acute Lymphoblastic Leukemia, CD5+). In addition, the two Raji cell (ATCC CCL-86, Burkitt's Lymphoma) clones used in this study Raji-clone #10 (high CD5 expression) and Raji-clone18 (null CD5 expression), were provided by Dr. Juan M. Zapata (Instituto de Investigaciones Biomedicas “Alberto Sols”, CSIC-UAM, Madrid, Spain). Cells were maintained at 37° C., 5% CO 2 and 95% humidity in Dulbecco's Modified Eagle's Medium (DMEM) (for MCF and MDA-MB-231 cells), RPMI-1640 (for SK-BR-3, HCC-1954, NB-4, U937, Raji, RPMI-8226, Karpas-299, MOLT-4, Raji-clone #10 and Raji-clone #18 cells), RPMI-1640+1% ITS (for BT-474 cells) or McCOyS (for SK-OV-3 cells), all media supplemented with 10% Fetal Calf Serum (FCS) and 100 units/mL penicillin and streptomycin.
For adherent cells: A colorimetric assay using sulforhodamine B (SRB) was adapted for quantitative measurement of cell growth and cytotoxicity, as described in V. Vichai and K. Kirtikara (2006) Sulforhodamine B colorimetric assay for cytotoxicity screening. Nature Protocols, 1, 1112-1 116. Briefly, cells were seeded in 96-well microtiter plates and allowed to stand for 24 hours in drug-free medium before treatment with vehicle alone or the indicated compounds for 72 hours. For quantification, cells were washed twice with phosphate buffered saline (PBS), fixed for 15 min in 1% glutaraldehyde solution, rinsed twice with PBS, stained in 0.4% SRB-1% acetic acid solution for 30 min, rinsed several times with 1% acetic acid solution and air-dried. SRB was then extracted in 10 mM trizma base solution and the optical density measured at 490 nm in a microplate spectrophotometer. Cell survival was expressed as percentage of control, untreated cell survival. […]

BT-474 cells = assay: In vitro cytotoxicity, SRB assay, 72 h dose-response; assay type: cell-based; conditions: Homo sapiens
Excerpt: (§2) Nature Protocols, 1, 1112-1 116.

SK-OV-3 cells = assay: as above; assay type: cell-based; conditions: Homo sapiens
Excerpt: as §2

HCC-1954 cells = assay: as above; assay type: cell-based; conditions: Homo sapiens, HCC1954, 72 h
Excerpt: as §2

MOLT-4 cells = assay: In vitro cytotoxicity, MTT assay, 72 h dose-response; assay type: cell-based; conditions: Homo sapiens, CD5+
Procedure: as §3

Raji cells = assay: as above; assay type: cell-based, human; conditions: CD13−, CD20+, CD5−, CD4−
Procedure: as §3

[3] = test system: HCC-1954, SK-BR-3, MDA-MB-231 and MCF-7 cells; assay: In vitro cytotoxicity, whole breast cancer cell panel
Excerpt: as §1
For adherent cells: A colorimetric assay using sulforhodamine B (SRB) was adapted for quantitative measurement of cell growth and cytotoxicity, as described in V. Vichai and K. Kirtikara (2006) Sulforhodamine B colorimetric assay for cytotoxicity screening. Nature Protocols, 1, 1112-1 116. Briefly, cells were seeded in 96-well microtiter plates and allowed to stand for 24 hours in drug-free medium before treatment with vehicle alone or the indicated compounds for 72 hours. For quantification, cells were washed twice with phosphate buffered saline (PBS), fixed for 15 min in 1% glutaraldehyde solution, rinsed twice with PBS, stained in 0.4% SRB-1% acetic acid solution for 30 min, rinsed several times with 1% acetic acid solution and air-dried. SRB was then extracted in 10 mM trizma base solution and the optical density measured at 490 nm in a microplate spectrophotometer. Cell survival was expressed as percentage of control, untreated cell survival.
The IC50 value refers to the concentration of compound inducing a 50% of cell death as compared to the control cell survival.
Standard dose-response (DR) curves for 72 hours were performed.

COC1=CC[C@@H]([C@@H](C)/C=C(C)/C=C\C=C/C(=O)N[C@H](C(=O)N/C=C\C[C@H](C/C=C(\C)Cl)OC(=O)NCCCNC(=O)CCCCCN2C(=O)C=CC2=O)C(C)(C)C)OC1=O [Compound 1]
IC50 (SK-BR-3 cells; HER2+, 72 h, read-out: IC50): 0.00089 µg/mL and 1.04 nM | more active in CD5 overexpressing cells (clone #10) than in CD5 null cells (clone #18) [1]: around 1 log | IC50 (NB-4 cells): 0.000805 µg/mL and 0.939 nM | IC50 ([2]; read-out: IC50 values along the different cell lines tested (range)): 0.00089 µg/mL to 0.0064 µg/mL and 1.04 nM to 7.47 nM | IC50 ([2]; read-out: mean IC50 value across the whole cell panel): 0.00341 µg/mL and 3.98 nM | IC50 (BT-474 cells; BT-474, 72 h): 0.0064 µg/mL and 7.47 nM | IC50 (SK-OV-3 cells; SK-OV-3, 72 h): 0.0057 µg/mL and 6.66 nM | IC50 (HCC-1954 cells; HER2+, 72 h, read-out: IC50): 0.00096 µg/mL and 1.12 nM | IC50 (MOLT-4 cells): 0.00335 µg/mL and 3.91 nM

COC1=CC[C@@H]([C@@H](C)/C=C(C)/C=C\C=C/C(=O)N[C@H](C(=O)N/C=C\C[C@H](C/C=C(\C)Cl)OC(=O)NCCCN)C(C)(C)C)OC1=O [Compound 4]
IC50 (Raji cells): 0.00141 µg/mL | IC50 (Raji cells; read-out: IC50): 2120 pM | IC50 (Raji cells; Homo sapiens, Raji, read-out: IC50): 0.00265 µg/mL and 4 nM | IC50 ([3]; Homo sapiens, read-out: mean IC50 value across the whole cell panel, four breast cell lines): 0.000197 µg/mL and 0.296 nM | mean IC50 value across the whole cell panel ([3]; four breast cell lines): 0.33 ng/mL | IC50 ([3]; read-out: mean IC50 value across the whole cell panel, four breast cell lines): 498 pM | IC50 (NB-4 cells): 7.9e-05 µg/mL and 0.12 nM | IC50 ([2]; six cell lines, read-out: mean IC50 value across the whole cell panel): 0.000569 µg/mL and 0.857 nM | IC50 ([2]; six cell lines, two independent experiments, read-out: IC50 values along the different cell lines tested (range)): 0.089 to 1.7 ng/mL (≈ 0.134 to 2.56 nM) | IC50 (BT-474 cells; BT-474, HER2+, 72 h, read-out: IC50): 0.00174 µg/mL and 2.62 nM | IC50 (SK-OV-3 cells; SK-OV-3, ovary, HER2+, 72 h, read-out: IC50): 0.00073 µg/mL and 1.1 nM | IC50 (MOLT-4 cells): 0.00091 µg/mL and 1.37 nM

COC1=CC[C@@H]([C@@H](C)/C=C(C)/C=C\C=C/C(=O)N[C@H](C(=O)N/C=C\C[C@H](C/C=C(\C)Cl)OC(N)=O)C(C)(C)C)OC1=O [Compound 40]
IC50 (SK-BR-3 cells): 4.9e-05 µg/mL and 0.081 nM | IC50 (Raji cells): 0.000115 µg/mL and 0.000285 µg/mL | IC50 (Raji cells; read-out: IC50): 190 pM and 470 pM | IC50 ([3]; Homo sapiens, read-out: IC50 values along the different cell lines tested (range)): 0.049 to 0.173 ng/mL | IC50 ([3]; Homo sapiens, read-out: mean IC50 value across the whole cell panel): 0.000106 µg/mL and 0.175 nM | IC50 (NB-4 cells): 3.1e-05 µg/mL and 0.052 nM | IC50 (HCC-1954 cells): 7.1e-05 µg/mL and 0.116 nM | IC50 (MOLT-4 cells): 9.3e-05 µg/mL and 0.154 nM
